Laboratory results taken from ChEMBL document CHEMBL3132782, “Identification of orally bioavailable small-molecule inhibitors of hematopoietic prostaglandin D2 synthase using X-ray fragment based drug discovery” (Medchemcomm, 2014).
Converted amounts (≈) assume the structure as drawn. The source made the active and inactive calls. The rule behind the calls is not given here.

Tests used:
[1] = target: T1, Hematopoietic prostaglandin D synthase (Homo sapiens, UniProt O60760); experiment: Inhibition of human hematopoietic prostaglandin D2 synthase by fluorescence polarisation assay
[2] = Aqueous solubility in simulated gastric fluid at pH 1.6; assay type: physicochemical
[3] = Aqueous solubility in water; assay type: physicochemical
[4] = Aqueous solubility in fed simulated intestinal fluid at pH 6.5; assay type: physicochemical
[5] = Aqueous solubility in fasted simulated intestinal fluid at pH 6.5; assay type: physicochemical
[6] = AUC (0 to infinity) in rat at 1 mg/kg, iv or 3 mg/kg, po by LC-MS/MS method; assay type: ADME, organism-based; conditions: plasma
[7] = target: T1, Hematopoietic prostaglandin D synthase; experiment: Inhibition of human hematopoietic prostaglandin D2 synthase by rapid fire mass spectrometry assay
[8] = Tmax in rat at 3 mg/kg, po by LC-MS/MS method; assay type: ADME, organism-based; set-up: dose 3 mg/kg, route oral; conditions: in vivo
[9] = Fraction unbound in rat at 1 mg/kg, iv or 3 mg/kg, po by LC-MS/MS method; assay type: ADME, organism-based; conditions: in vivo
Rattus norvegicus = experiment: fCmax in rat at 3 mg/kg, po by LC-MS/MS method; assay type: ADME, organism-based; set-up: dose 3 mg/kg, route oral; conditions: in vivo
[10] = target: T1, Hematopoietic prostaglandin D synthase; experiment: Inhibition of hematopoietic prostaglandin D2 synthase in IgE and IL-5 primed human LAD2 cells assessed as reduction in PGD2 production by mass spectrometry; assay type: cell-based
Mus musculus = experiment: Reduction in PGD2 level in C57/BL6/J mouse peritoneal lavage supernatants at 30 mg/kg, po measured 40 mins after compound 48/80 injection by enzyme immunoassay pre-treated 30 mins before compound 48/80 injection; assay type: functional, organism-based; set-up: dose 30 mg/kg
[11] = Protein binding in rat whole blood at 1 mg/kg, iv or 3 mg/kg, po by LC-MS/MS method; assay type: ADME, organism-based; conditions: read-out: PB (converted)
[12] = Cmax in rat at 3 mg/kg, po by LC-MS/MS method; assay type: ADME, organism-based; set-up: dose 3 mg/kg, route oral; conditions: in vivo
[13] = Oral bioavailability in rat at 3 mg/kg by LC-MS/MS method; assay type: ADME, organism-based; conditions: in vivo
[14] = Blood clearance in rat at 1 mg/kg, iv or 3 mg/kg, po by LC-MS/MS method; assay type: ADME, organism-based
[15] = Volume of distribution at steady state in rat at 1 mg/kg, iv or 3 mg/kg, po by LC-MS/MS method; assay type: ADME, organism-based; conditions: in vivo, read-out: Vdss
[16] = Half life in rat at 1 mg/kg, iv or 3 mg/kg, po by LC-MS/MS method; assay type: ADME, organism-based; conditions: in vivo
[17] = target: T1, Hematopoietic prostaglandin D synthase; experiment: Inhibition of human hematopoietic prostaglandin D2 synthase at 10 nM by fluorescence polarisation assay
[18] = target: T1, Hematopoietic prostaglandin D synthase; experiment: Inhibition of human hematopoietic prostaglandin D2 synthase at 100 uM by fluorescence polarisation assay
[19] = target: T1, Hematopoietic prostaglandin D synthase; experiment: Inhibition of human hematopoietic prostaglandin D2 synthase at 30 uM by fluorescence polarisation assay

T1 sequence (O60760 whole entry): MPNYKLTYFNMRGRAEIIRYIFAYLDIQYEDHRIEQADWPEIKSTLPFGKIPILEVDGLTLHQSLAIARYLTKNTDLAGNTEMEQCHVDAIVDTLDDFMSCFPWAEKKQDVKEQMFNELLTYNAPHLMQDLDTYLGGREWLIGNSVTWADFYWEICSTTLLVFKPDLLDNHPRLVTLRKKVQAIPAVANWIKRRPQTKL

SMILES: c1nc(NC2CCCC2)c2cn[nH]c2n1
- IC50 [1]: 8500 nM

SMILES: Cc1cn(NC(=O)c2cnc(-c3ccccn3)nc2)c2ccc(F)cc12
- solubility [2]: 203 µg/mL (≈ 584 µM)
- solubility [3]: 4.4 µg/mL (≈ 12.7 µM)
- solubility [4]: < 1 µg/mL
- solubility [5]: 4.6 µg/mL (≈ 13.2 µM)

SMILES: c1nc(NC2CCCC2)c2cc[nH]c2n1
- IC50 [1]: 500 nM

SMILES: O=C(NC1CCCC1)N1Cc2cc(-c3c[nH]nc3C3CC3)cnc2C1
- AUC(0-inf) [6]: 295 ng·h/mL
- IC50 [7]: 40 nM
- Tmax [8]: 0.5 h
- fraction unbound [9]: 0.055
- solubility [2]: 885 µg/mL (≈ 2620 µM)
- fCmax (Rattus norvegicus): 30 nM
- IC50 [10]: 317 nM
- Activity (Mus musculus): Active
- solubility [3]: 52 µg/mL (≈ 154 µM)
- solubility [4]: 136 µg/mL (≈ 403 µM)
- fraction unbound [11]: 0.055
- solubility [5]: 109 µg/mL (≈ 323 µM)
- Cmax [12]: 196 ng/mL
- bioavailability [13]: 19%
- clearance [14]: 33 mL/min/kg
- Vd [15]: 2.8 L/kg
- half-life [16]: 2.2 h
- inhibition [17]: 66%
- IC50 [1]: < 10 nM

SMILES: c1cncc(-c2c[nH]nc2C2CC2)c1
- IC50 [1]: 17000 nM

SMILES: Cn1nnnc1N1CCC(NC(=O)c2ccc(-c3cccc(F)c3)nc2)CC1
- solubility [2]: 48.9 µg/mL (≈ 128 µM)
- solubility [3]: 16.5 µg/mL (≈ 43.3 µM)
- solubility [4]: 44 µg/mL (≈ 115 µM)
- solubility [5]: 31.2 µg/mL (≈ 81.8 µM)

SMILES: c1cncc(-c2cn[nH]c2)c1
- inhibition [18]: 58%

SMILES: Cc1n[nH]cc1-c1ccc(C#N)cc1
- inhibition [19]: 52%

SMILES: CCNC(=O)N1Cc2cc(-c3c[nH]nc3C3CC3)cnc2C1
- IC50 [7]: 501 nM
- IC50 [10]: 4000 nM
- IC50 [1]: 40 nM
